In the supplement of paper PMC10307832:

Experiments:
Assay in all cases: relative viability (nuclei count vs DMSO), 5 days (fraction); higher = more cells survive
4EGI-1 + Phenformin = compound: O=C(O)C(Cc1ccccc1[N+](=O)[O-])=NNc1nc(-c2ccc(Cl)c(Cl)c2)cs1 (mixture of isomers) [4EGI-1] + N=C(N)NC(=N)NCCc1ccccc1 [Phenformin] (partner 250 µM)
How it was run: (§1)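 Nuclei were stained with Hoechst during a one-step fixation (final 0.05% Triton X-100, 1% formaldehyde, 1 ug/ml Hoechst) carried out 5 days after dosing, then counted on 4× images. The cells, lung cancer lines in 1536-well plates, had been dosed by pin tool the day after seeding with one drug alone or a fixed anchor-drug dose plus five library-drug doses (not always all listed) in √10 steps. Relative viability is the nuclei count in treated wells divided by that in vehicle wells, and each value is the median of duplicate plates.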

XMD8-85 + Bortezomib = compound: CN1CCN(CC1)C2=CC(=C(C=C2)NC3=NC=C4C(=N3)N(C5=CC=CC=C5C(=O)N4C)C)OC [XMD8-85] + CC(C)C[C@H](NC(=O)[C@H](Cc1ccccc1)NC(=O)c1cnccn1)B(O)O [Bortezomib] (partner 0.002 µM)
How it was run: as §1

XMD8-85 + Pemetrexed = compound: CN1CCN(CC1)C2=CC(=C(C=C2)NC3=NC=C4C(=N3)N(C5=CC=CC=C5C(=O)N4C)C)OC [XMD8-85] + Nc1nc2[nH]cc(CCc3ccc(C(=O)N[C@@H](CCC(=O)O)C(=O)O)cc3)c2c(=O)[nH]1 [Pemetrexed] (partner 0.2 µM)
How it was run: as §1

XMD8-85 + Navitoclax = compound: CN1CCN(CC1)C2=CC(=C(C=C2)NC3=NC=C4C(=N3)N(C5=CC=CC=C5C(=O)N4C)C)OC [XMD8-85] + CC1(C)CCC(c2ccc(Cl)cc2)=C(CN2CCN(c3ccc(C(=O)NS(=O)(=O)c4ccc(N[C@H](CCN5CCOCC5)CSc5ccccc5)c(S(=O)(=O)C(F)(F)F)c4)cc3)CC2)C1 [Navitoclax] (partner 0.5 µM)
How it was run: as §1

Row | Cell Line | relative viability (4EGI-1 + Phenformin; first compound 0.5 µM) | relative viability (4EGI-1 + Phenformin; first compound 1.581 µM) | relative viability (4EGI-1 + Phenformin; first compound 5 µM) | relative viability (4EGI-1 + Phenformin; first compound 15.81 µM) | relative viability (4EGI-1 + Phenformin; first compound 50 µM) | relative viability (XMD8-85 + Bortezomib; first compound 0.08 µM) | relative viability (XMD8-85 + Bortezomib; first compound 0.253 µM) | relative viability (XMD8-85 + Bortezomib; first compound 0.8 µM) | relative viability (XMD8-85 + Bortezomib; first compound 2.53 µM) | relative viability (XMD8-85 + Bortezomib; first compound 8 µM) | relative viability (XMD8-85 + Pemetrexed; first compound 0.08 µM) | relative viability (XMD8-85 + Pemetrexed; first compound 0.253 µM) | relative viability (XMD8-85 + Pemetrexed; first compound 0.8 µM) | relative viability (XMD8-85 + Pemetrexed; first compound 2.53 µM) | relative viability (XMD8-85 + Pemetrexed; first compound 8 µM) | relative viability (XMD8-85 + Navitoclax; first compound 0.08 µM) | relative viability (XMD8-85 + Navitoclax; first compound 0.253 µM) | relative viability (XMD8-85 + Navitoclax; first compound 0.8 µM) | relative viability (XMD8-85 + Navitoclax; first compound 2.53 µM) | relative viability (XMD8-85 + Navitoclax; first compound 8 µM)
1 | NCI-H2405 | 0.419 | 0.338 | 0.421 | 0.409 | 0.409 | 1.01 | 0.983 | 0.975 | 1.02 | 0.927 | 1.12 | 1.05 | 1.04 | 1.01 | 0.602 | 0.877 | 1.09 | 1.08 | 0.662 | 0.427
2 | RERF-LC-KJ | 0.412 | – | 0.442 | 0.354 | 0.333 | 0.937 | 1.07 | 1.06 | 1.2 | 0.742 | 0.46 | 0.478 | 0.484 | 0.497 | 0.43 | 0.712 | 0.96 | 0.982 | 1.03 | 0.565
3 | HCC-827 | 0.403 | 0.394 | 0.396 | – | 0.353 | 1.16 | 1.1 | 1.05 | 0.978 | 1.02 | 0.284 | 0.251 | 0.266 | 0.254 | 0.301 | 1.02 | 1.01 | 0.985 | 0.909 | 1.03
4 | SW 1573 | 0.457 | 0.388 | 0.403 | 0.276 | 0.114 | 0.881 | 1.34 | 1.02 | 1.03 | 0.639 | 0.831 | 0.813 | 1.06 | 0.895 | 0.461 | 1.13 | 1.02 | 0.896 | 0.801 | 0.545
5 | UMC-11 | 0.384 | 0.365 | 0.334 | 0.28 | 0.237 | 0.538 | 0.577 | 0.903 | 0.852 | 0.373 | 0.818 | 0.745 | 0.82 | 0.707 | 0.391 | 0.356 | 0.312 | 0.322 | 0.301 | 0.234
6 | NCI-H1651 | 0.345 | 0.295 | 0.35 | 0.267 | 0.231 | 1.08 | 0.946 | 0.882 | 0.903 | 0.875 | 0.506 | 0.617 | 0.602 | 0.748 | 0.445 | 1.09 | 1 | 1.13 | 0.976 | 0.849
7 | H3255 | 0.424 | 0.347 | 0.385 | 0.308 | 0.324 | 0.856 | 0.787 | – | 0.741 | 0.29 | 0.558 | – | 0.525 | 0.599 | 0.375 | 0.519 | 0.581 | 0.45 | 0.484 | 0.284
8 | NCI-H1975 | 0.444 | 0.356 | 0.407 | 0.442 | 0.361 | 0.443 | 0.36 | 0.378 | 0.297 | 0.222 | 0.257 | 0.286 | 0.305 | 0.282 | 0.227 | 1.25 | 1.12 | 1.09 | 1.09 | 0.532
9 | BEN | 0.278 | 0.267 | 0.281 | 0.241 | 0.269 | 0.795 | 0.808 | 0.839 | 0.549 | 0.416 | 0.811 | 0.771 | 0.696 | 0.735 | 0.474 | 0.0618 | 0.0742 | 0.437 | 0.0692 | 0.0637
10 | LC-2-ad | 0.601 | – | 0.649 | 0.342 | 0.265 | 1.04 | 0.976 | 0.99 | 0.921 | – | 0.261 | 0.26 | 0.253 | 0.274 | 0.249 | 0.512 | 0.364 | – | 0.574 | 0.328
11 | NCI-H2085 | 0.8 | 0.795 | 0.823 | 0.536 | 0.404 | 0.92 | 1.03 | 1.18 | 0.95 | – | 0.889 | 0.826 | 0.849 | 0.811 | 0.713 | 1.16 | 1.11 | 1.12 | 1.04 | 0.789
